From ChEMBL document CHEMBL3507680, “University of Dundee, Gates Library screen for HepG2 cell viability”

Assay: Human HepG2 cell viability assay in 384 well format
Assay type: toxicity, cell-based
Parameters: dose 125 nL, time 70.5 hour; cytotoxicity at 70.5 h: concentration not given beside the values
Settings: HepG2 cells, read-out: Inhibition

SMILES	cytotoxicity at 70.5 h
Cc1nc(NCc2nnc(C)n2C)c2c(CC(C)C)csc2n1	0.805%
Cc1cc(-c2cnc(N3CCNC(=O)C3)nc2-c2ccncc2)on1	7.7%
COCC(NC(=O)c1ccc[nH]1)c1cccc(C(F)(F)F)c1 (centres undefined)	17.9%
CN1CCN(Cc2cccnc2)C2(CCN(c3ncc(F)cn3)C2)C1=O (centres undefined)	-6.18%
Cc1oc(-c2cccs2)nc1C(=O)N1CCCC1Cn1cccn1 (centres undefined)	-6.8%
COc1ccc(NC(=O)NC(C)(C)c2noc(C)n2)cc1	0.532%
CCCN1CCCn2nc(CNS(=O)(=O)c3cnn(CC)c3)cc2C1	-3.06%
CCn1nc(C)c2nc(C(C)C)nc(NC)c21	20.9%
COc1ccccc1OCc1cc(C(=O)N2CC(O)C2)n[nH]1	-4.48%
O=C(c1ccco1)N1C[C@H]2CCCN(Cc3ccc(F)cc3)[C@H]2C1	-9.54%
CCn1ncc2[nH]c(-c3cc(OC)c(OC)cc3OC)nc21	29.7%
Cc1cc(CNC(=O)C2CC(=O)N(CCN(C)C)C2)cc(C)n1 (centres undefined)	27.5%
CN(CC1(CO)CCC1)c1nc2c(c(=O)[nH]1)Cc1ccccc1OC2	-10.8%
Cc1nn(C)c(N(C)C)c1CNCc1ccnc(N2CCCC2)c1	-4.33%
Cc1ccc(-c2nc(CC(=O)N3CCN(c4cnccn4)CC3)cs2)o1	-4.05%
Cc1ccc(CN2CC3(CCN(C(=O)c4cscn4)C3)C2)o1	-7.14%
Cc1nn(C(C)C)cc1S(=O)(=O)N(C)Cc1nonc1C	-7.62%
CC(C)=CCN1C[C@H]2CC[C@@H]1CN(Cc1cc(=O)[nH]c(=O)[nH]1)C2	-3.94%
NC(=O)CN1CCCC1c1ccccc1Br (centres undefined)	7.42%
CN(C)CC1(O)CCN(C(=O)c2ccc(-n3cccn3)cc2Cl)C1 (centres undefined)	5.18%
O=C(c1cccc2c1OCCO2)N1CCCC(n2cccn2)C1 (centres undefined)	-8.22%
Fc1cccc(CN2CCOC3(COCCN(CC4CC4)C3)C2)c1 (centres undefined)	-8.93%
Cc1ccc(NC(=O)NC(C)c2nc[nH]n2)cc1Cl (centres undefined)	-3.17%

SMILES	cytotoxicity at 70.5 h
CCOC(=O)Cc1csc(NC(=O)c2cc(=O)c(OC)c[nH]2)n1	2.05%
Cc1noc(-c2ccc(N3CCN(Cc4ncccc4C)CC3)nc2)n1	-7.47%
Cc1nc(CNC(=O)NC2CCN(c3ncccn3)CC2)cs1	-6.89%
Cc1nc(C)n(CC2CCCCN2CCCS(C)(=O)=O)n1 (centres undefined)	9.04%
CN(CCC#N)C(=O)Cc1csc(-c2ncccn2)n1	-3.29%
CCC(C)c1noc(C2CCN(C(=O)Cn3nc(C)cc3C)CC2)n1 (centres undefined)	-5.55%
CCCn1c(N2CCCC(C)C2)nc2c(C)nn(C)c2c1=O (centres undefined)	-14.3%
Cc1ccc(C(=O)O)cc1-c1cccc(C(C)N(C)C)c1 (centres undefined)	-2.39%
COc1cccc(C(=O)N2CCCC2c2ncc3c(n2)CCN(C)C3)c1 (centres undefined)	-0.392%
Cc1nc2cc(F)cc(C(=O)N3CCN(CC(C)O)CC3)c2nc1C (centres undefined)	-9.3%
O=C(Cc1cccs1)N1Cc2nc(COCC3CC3)oc2C1	0.985%
Cc1[nH]ncc1C(=O)N1CCCN(Cc2nccn2C(C)C)CC1	-1.07%
Cc1nc(C(=O)N2CCC(c3nccn3Cc3ccncc3)CC2)cs1	-5.72%
C[C@@H]1CN(Cc2cn(C)nc2-c2ccccc2F)C[C@H](C)O1	-11.3%
CC(C)C1CN(c2ncc(F)cn2)CCC(=O)N1Cc1ccc(F)cc1 (centres undefined)	-6.84%
CCc1ncnc2c1CCN(C(=O)c1ccncc1F)CC2	-6.52%
CNc1cncc(C2CCCN2C(=O)CCn2ccnc2)n1 (centres undefined)	-6.98%
Cc1nc(C(C)Nc2ncnc3c2CCNCC3)c(C)s1 (centres undefined)	-4.99%
Cc1noc(C2CCN(C(=O)CCCNc3ncccn3)CC2)n1	1.13%
Cn1nccc1C(=O)N1CCCN(CCCc2ccccc2)CC1	-0.514%
Cc1cccc2c1OCCC2NCc1c(C)nn(C)c1N(C)C (centres undefined)	35%
Cc1[nH]c2c(F)cccc2c1CC(=O)N1CCCC(N)CC1 (centres undefined)	14.1%
COc1ccc(F)c(CN2CCCC(O)(CNCC(C)(C)C)C2=O)c1 (centres undefined)	13.1%

SMILES	cytotoxicity at 70.5 h
CC(Cn1ccnc1)NC(=O)N(C)Cc1ccsc1 (centres undefined)	-27.1%
O=C(c1ccc2[nH]ccc2c1)N1CCCSCC1CN1CCCC1 (centres undefined)	-2.63%
CN1CCOC(C)(C(=O)Nc2nccs2)C1 (centres undefined)	40.2%
Cc1ccccc1CN(CCN(C)C)Cc1ccc(S(C)(=O)=O)cc1	4.23%
Cc1ccc(CN(C)C(=O)NCC(C)(C)CCS(C)(=O)=O)s1	-1.02%
CC(=O)NCCNC(=O)NCc1ccc(Br)cc1Cl	-0.47%
CCN(CC)C(=O)Cn1ccc2cc(NC(=O)NC3CC3)ccc21	-3.42%
c1cncc(CN2Cc3nccn3CC(Cn3cncn3)C2)c1 (centres undefined)	0.12%
CC(C)(C)n1cc(C(=O)NCCCn2ccnc2)c2cccnc21	-4.7%
OC[C@H]1CN(Cc2c(Cl)cccc2Cl)C[C@H]1CN1CCCCC1	7.58%
CC(C)(C)c1ncc(C(=O)NCCNC(=O)Cc2ccccc2)s1	-5.68%
Cc1nc(C)c(CNC(=O)N2CCc3ccccc3C2CO)s1 (centres undefined)	-1.94%
CC(C)c1cc(C(=O)NCCc2nc(-c3cccnc3)n[nH]2)[nH]n1	11.1%
COCC1CC2(CCN(C(=O)c3oc4ccccc4c3C)CC2)CO1 (centres undefined)	3.46%
Nc1cc2c(nn1)CCN(C(=O)c1csc(-c3ccccc3)n1)C2	-1.92%
CCC1(C(=O)O)CCCN(C(=O)c2ccc(N3CCN(C)CC3)cc2)C1 (centres undefined)	21.4%
O=C(NCCc1nnc2n1CCC2)NCC1(c2ccccc2)CC1	14%
Cc1ccc(N(CC(=O)N2CCCCC2)C(=O)C2CCCO2)cc1 (centres undefined)	-1.14%
COCCN1CCN(CC(=O)N(C)Cc2ccccc2)CC1C (centres undefined)	53.1%
Cc1cccc(C(=O)N2CCCCC2c2nc3cc(F)ccc3[nH]2)n1 (centres undefined)	-11.8%
Cn1c(Cn2ccnc2)nnc1C1CCCN(C2CCCCC2)C1 (centres undefined)	-9.84%
COCC1CC2(CCN(c3cccc(C)n3)CC2)CN1c1ncccn1 (centres undefined)	-10.3%
CNC(=O)COC1COC2(CCN(Cc3cccnc3)CC2)C1 (centres undefined)	-9.98%

SMILES	cytotoxicity at 70.5 h
CCCN1CCC(N(Cc2ncc(C)o2)C(C)=O)C1 (centres undefined)	-8%
Cc1cnn(C2CCCN(C(=O)c3ccc(N(C)C)nn3)C2)c1 (centres undefined)	-10.7%
c1cncc(OCc2nc(C3CC3)nn2-c2ccc3c(c2)OCCO3)c1	14.2%
COc1c(CNCc2cccc(Cn3cccn3)c2)c(C)nn1C	3.69%
COCCC(=O)N1CC2(CCN(Cc3ccncc3)CC2)C1	-1.69%
O[C@H]1COCCN(Cc2cccc(C(F)(F)F)c2)C1	-9.83%
Cc1cc(C(=O)NCc2ccnc(OCC(F)(F)F)c2)no1	-9.23%
Cc1cc(C)n(Cc2cccc(C(=O)NCCN3CCOCC3)c2)n1	-6.51%
Oc1ccc(CCC2CCCCN2Cc2noc(C3CC3)n2)cc1 (centres undefined)	15.5%
Cc1ccc(C(=O)NC2CCCN(c3ncccn3)C2)cn1 (centres undefined)	19.3%
CCc1cnc(NCCCOC2CCCC2)nc1	-16.5%
O=S(=O)(NCC1CCN(c2cnccn2)CC1)c1ccc(F)c(Cl)c1	-1.36%
NC(=O)NC(=O)CCN1CCCC1c1cccc2c1OCCO2 (centres undefined)	-11.6%
CCN1CC2(CC1=O)CN(C(=O)c1ccco1)CCN(C(=O)N(C)C)C2 (centres undefined)	-5.37%
O=C(NC[C@H]1OC[C@@H](NC2CCC(F)(F)CC2)[C@@H]1O)c1ccccc1	-0.0244%
COc1ccsc1C(=O)Nc1cc(Br)c(=O)n(C)c1	-4.19%
Cc1ncc2c(n1)CCN(C(=O)Cc1c(C)noc1C)C2	22.9%
O=C(C1NCCc2[nH]cnc21)N1CCC2(CC1)CNc1ccccc12 (centres undefined)	-11.9%
O=C(NCC1CCOCC1)c1cc(-c2cccnc2)c2cnccc2n1	-8.58%
O=C(NCC1(O)CCOC1)NCC1(c2ccccc2Cl)CCC1 (centres undefined)	0.471%
COCC1CN(C(=O)COc2ccccc2C)Cc2ncn(C)c21 (centres undefined)	-4.45%
Cc1cc2c(=O)n3c(nc2s1)CCN(Cc1c[nH]cn1)CC3	1%
CCOC[C@@H]1CCC[C@@]12CN(Cc1nccs1)CCO2	0.476%

SMILES	cytotoxicity at 70.5 h
Cc1cc(C(=O)NCc2cc(C)oc2C)no1	-5.78%
Cc1cccc2nc(CN3CCCC3Cn3cncn3)cn12 (centres undefined)	-17%
CNC(=O)c1cnc(/C=C/c2ccc(OC)c(O)c2)s1	-6.12%
CN(C)c1ccc(CC2COCCN(Cc3nccn3C)C2)nn1 (centres undefined)	-0.733%
CN(C)CCOCC1CN(Cc2ccsc2)Cc2nnn(C)c21 (centres undefined)	30.5%
CCS(=O)(=O)N1CCOC2(CCCN(c3cnccn3)C2)C1 (centres undefined)	-6.84%
COCCN(CC(F)F)c1cc(COC)nc2ncnn12	-9.69%
Cc1cc(C)cc(C(C)NCc2nnc(C)s2)c1 (centres undefined)	-12%
Cc1ncncc1C(=O)N1CCC(O)(CN(C)Cc2ccc(F)cc2)C1 (centres undefined)	-5.31%
Cc1noc(C2CCCN(CC(=O)N3CCNC(=O)C3)C2)n1 (centres undefined)	-4.79%
O=C(NCC(F)F)c1ccc(S(=O)(=O)NCCc2c[nH]cn2)cc1	-6.02%
O=C(NCCCn1cccn1)C1(c2cccc(Cl)c2)CC1	55.5%
COCCN1C[C@@H]2OCCN(c3ccnc(N(C)C)n3)[C@@H]2C1	0.722%
Cn1nnc2c1CCN(C(=O)C1CC1)C2COCCN1CCCC1 (centres undefined)	-3.87%
CC(C)CNC(=O)N1CC[C@@H]2CN(Cc3cccnc3)S(=O)(=O)[C@@H]2CC1	-4.92%
Cn1cc(CC2CCN(C(=O)NCc3cccc(C(N)=O)c3)C2)cn1 (centres undefined)	-13.1%
O=S(=O)(c1cn[nH]c1)N1CCC(O)(CN2CCOCC2)C1 (centres undefined)	4.95%
CC(=O)N[C@@H]1CN(S(=O)(=O)c2ccc(Cl)cc2)C[C@H]1O	-7.41%
Oc1nnc(-c2cccs2)c2sc(N3CCCC3)nc12	-6.61%
CCN(Cc1noc(C2CC2)n1)C(=O)c1onc2ccccc12	-8.65%
CCC[C@@H]1CN(Cc2ccccc2OC(F)(F)F)C[C@H]1NC(C)=O	-20%
CN(Cc1n[nH]c2c1CCC2)c1nc(C2CCCC2)nc2c1CNC2	-8.94%
